Tests used:
hDGAT1 = biological target: T1, hDGAT1 (Homo sapiens, UniProt O75907); assay: In-vitro DGAT1 assay (14C oleoyl CoA, hDGAT1 microsomes from Sf9 cells); conditions: for inhibition at 1 µM: read-out: % Inhibition of hDGAT1
T1 sequence (O75907 1-488): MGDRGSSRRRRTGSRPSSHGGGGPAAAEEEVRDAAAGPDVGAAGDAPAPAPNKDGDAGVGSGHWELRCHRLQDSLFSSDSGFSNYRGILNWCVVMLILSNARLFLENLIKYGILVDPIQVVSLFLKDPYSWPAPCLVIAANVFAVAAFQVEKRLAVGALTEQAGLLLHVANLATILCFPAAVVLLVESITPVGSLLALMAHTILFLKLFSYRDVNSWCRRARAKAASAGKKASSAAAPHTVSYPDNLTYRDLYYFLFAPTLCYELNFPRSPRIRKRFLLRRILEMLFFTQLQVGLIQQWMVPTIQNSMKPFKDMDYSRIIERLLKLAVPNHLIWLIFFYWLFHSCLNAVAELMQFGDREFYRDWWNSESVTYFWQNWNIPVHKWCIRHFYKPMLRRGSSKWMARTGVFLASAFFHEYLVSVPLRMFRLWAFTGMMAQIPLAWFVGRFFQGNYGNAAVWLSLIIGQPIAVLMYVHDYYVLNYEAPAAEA

Swiss mice = assay: Fat tolerance test (ftt) in mice; assay type: in vivo; conditions: 3 mg/kg, p.o.; olive oil load 10 mL/kg 30 min after treatment; AUC0-4h, vehicle group as 100%
Method: Swiss mice of age 4-5 weeks and body weight between 25-30 g were selected for study. After fasting for about 16 h, the animals were divided into three groups based on plasma triglyceride level with same mean and variation. Animals were administered with either vehicle [(1% tween 80 in 0.5% carboxy methylcellulose (CMC)]) or with compounds of the present invention (3 mg/kg, p.o.). Compounds of the present invention were prepared as suspension in 0.5% carboxy methylcellulose (CMC) with 1% tween 80. Olive oil (fat) load (10 mL/kg, p.o.) was given, 30 min after the treatment. Blood samples were collected at 1, 2, 3 and 4 h after the fat (olive oil) load. Plasma was separated and triglyceride level was measured using commercially available kits (diasys, Germany). Percentage reduction in area under curve (AUC0-4h) of the test compound was calculated by taking AUC0-4h of the vehicle group as 100%.

## CC(C)[C@@H](C(=O)O)N1Cc2ccc(-c3ccc(NC(=O)c4ccc(C(C)(C)C)cc4)cc3)cc2C1=O [Example 116, (S)-2-(6-(4-(4-tert-Butylbenzamido)phenyl)-1-oxoisoindolin-2-yl)-3-methyl butanoic acid]
hDGAT1
  inhibition at 1 µM: > 50%
Swiss mice
  % Reduction (Plasma triglyceride): ++ (>50% Reduction)

## CC(C)[C@@H](C(=O)O)N1Cc2ccc(-c3ccc(NC(=O)c4ccc(Oc5ccccc5)cc4)cc3)cc2C1=O [Example 150, (S)-3-Methyl-2-(1-oxo-6-(4-(4-phenoxybenzamido)phenyl)isoindolin-2-yl)butanoic acid]
hDGAT1
  inhibition at 1 µM: > 50%
Swiss mice
  % Reduction (Plasma triglyceride): ++ (>50% Reduction)

## CCCc1ccc(C(=O)Nc2ccc(-c3ccc4c(c3)C(=O)N([C@H](C(=O)O)C(C)C)C4)cc2)cc1 [Example 170, (S)-3-Methyl-2-(1-oxo-6-(4-(4-propylbenzamido)phenyl)isoindolin-2-yl)butanoic acid]
hDGAT1
  inhibition at 1 µM: > 50%
Swiss mice
  % Reduction (Plasma triglyceride): ++ (>50% Reduction)

## CC(C)[C@@H](C(=O)O)N1Cc2ccc(-c3ccc(NC(=O)c4cccc(Oc5ccccc5)c4)cc3)cc2C1=O [Example 148, (S)-3-Methyl-2-(1-oxo-6-(4-(3-phenoxybenzamido)phenyl)isoindolin-2-yl)butanoic acid]
hDGAT1
  inhibition at 1 µM: > 50%
Swiss mice
  % Reduction (Plasma triglyceride): ++ (>50% Reduction)

## CC(C)[C@@H](C(=O)O)N1Cc2ccc(-c3ccc(NC(=O)c4ccc(-c5ccccc5)cc4)cn3)cc2C1=O [Example 408, (S)-2-(6-(5-Biphenyl-4-ylcarboxamidopyridin-2-yl)-1-oxoisoindolin-2-yl)-3-methylbutanoic acid]
hDGAT1; at 1 μM
  % Inhibition of hDGAT1: ++ (>50% Inhibition)
Swiss mice
  % Reduction (Plasma triglyceride): ++ (>50% Reduction)

## CCCCCc1ccc(C(=O)Nc2ccc(-c3ccc4c(c3)C(=O)N([C@H](C(=O)O)C(C)C)C4)nc2)cc1 [Example 406, (S)-3-Methyl-2-(1-oxo-6-(5-(4-pentylbenzamido)pyridin-2-yl)isoindolin-2-yl)butanoic acid]
hDGAT1
  inhibition at 1 µM: > 50%
Swiss mice
  % Reduction (Plasma triglyceride): ++ (>50% Reduction)
